# Key:
# MMP-2 [1] = test: Substrate phage display with NGS: relative probability (RP) of P3-P1' tetramer clusters; format: biochemical, human;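 further: ratio of tetramer probability after protease selection to that in naive phage library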
# MMP-9 [2] = test: as above; format: biochemical, human; conditions: for relative_probability: tetramer clusters unique to the MMP-9 selectome, MMP-9 RP
# MMP-2 [3] = target: T1, MMP-2 (Homo sapiens, UniProt P08253); test: K(obs) of individual phage substrates (set of 1369); format: biochemical; conditions: MMP2; individual phage substrate of the set of 1369 peptides, cleavage position marked by '-'
# T1 sequence (P08253 110-660): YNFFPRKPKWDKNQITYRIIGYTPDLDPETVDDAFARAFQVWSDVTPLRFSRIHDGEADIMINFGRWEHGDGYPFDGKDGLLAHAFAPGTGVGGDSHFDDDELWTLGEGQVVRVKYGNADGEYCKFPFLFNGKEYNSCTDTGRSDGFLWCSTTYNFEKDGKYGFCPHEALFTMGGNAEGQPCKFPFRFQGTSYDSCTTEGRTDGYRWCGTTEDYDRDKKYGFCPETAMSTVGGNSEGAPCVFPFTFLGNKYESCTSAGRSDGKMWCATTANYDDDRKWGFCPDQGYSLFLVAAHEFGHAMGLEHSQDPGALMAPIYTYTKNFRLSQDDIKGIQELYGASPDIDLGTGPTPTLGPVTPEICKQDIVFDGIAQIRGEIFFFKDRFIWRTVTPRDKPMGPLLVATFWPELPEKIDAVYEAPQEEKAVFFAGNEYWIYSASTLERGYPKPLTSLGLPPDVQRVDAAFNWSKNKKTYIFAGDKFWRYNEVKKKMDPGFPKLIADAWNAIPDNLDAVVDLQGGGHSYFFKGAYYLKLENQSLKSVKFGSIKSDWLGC
# MMP-9 [4] = target: MMP-9 (Homo sapiens, UniProt P14780); test: as above; format: biochemical; conditions: MMP9; individual phage substrate of the set of 1369 peptides; dash in the sequence marks the cleavage position
# [5] = RP of the P3-P1' tetramer cluster contained in the hexamer, 200 nM MMP-2, 2 h, 37°C, two rounds of selection
# [6] = MMP9, RP of the P3-P1' tetramer contained in the hexamer substrate (substrate phage display, NGS)
# [7] = RP according to MMP9, P3-P1' tetramer of unique physiologic MMP9 substrates from MEROPS
# [8] = tetramer projected onto MMP-9 cleavage sites determined by Prudova et al. (2010)
# [9] = RP of the P3-P1' tetramer in MMP-9 substrate phage display/NGS, tetramer annotation of MMP-9 cleavage sites (octamers P4-P4') collected in MEROPS database
# [10] = rank of the P3-P1' tetramer by RP in MMP-9 substrate phage display/NGS, tetramer annotation of MMP-9 cleavage sites (octamers P4-P4') collected in MEROPS database
# [11] = MMP9, RP of the P3-P1' tetramer matching the MS detected cleavage, RP above 4.7, substrate phage display with NGS
# [12] = tetramer probability in MMP9 set / naive library, 200 nM protease, 2 h, 37°C
# [13] = tetramer annotation of MMP-9 cleavage sites in physiologic substrates from MEROPS
# [14] = MMP2, RP of the P3-P1' tetramer contained in the substrate
# MMP-9 (Homo sapiens, UniProt P14780), sequence (P14780 94-707): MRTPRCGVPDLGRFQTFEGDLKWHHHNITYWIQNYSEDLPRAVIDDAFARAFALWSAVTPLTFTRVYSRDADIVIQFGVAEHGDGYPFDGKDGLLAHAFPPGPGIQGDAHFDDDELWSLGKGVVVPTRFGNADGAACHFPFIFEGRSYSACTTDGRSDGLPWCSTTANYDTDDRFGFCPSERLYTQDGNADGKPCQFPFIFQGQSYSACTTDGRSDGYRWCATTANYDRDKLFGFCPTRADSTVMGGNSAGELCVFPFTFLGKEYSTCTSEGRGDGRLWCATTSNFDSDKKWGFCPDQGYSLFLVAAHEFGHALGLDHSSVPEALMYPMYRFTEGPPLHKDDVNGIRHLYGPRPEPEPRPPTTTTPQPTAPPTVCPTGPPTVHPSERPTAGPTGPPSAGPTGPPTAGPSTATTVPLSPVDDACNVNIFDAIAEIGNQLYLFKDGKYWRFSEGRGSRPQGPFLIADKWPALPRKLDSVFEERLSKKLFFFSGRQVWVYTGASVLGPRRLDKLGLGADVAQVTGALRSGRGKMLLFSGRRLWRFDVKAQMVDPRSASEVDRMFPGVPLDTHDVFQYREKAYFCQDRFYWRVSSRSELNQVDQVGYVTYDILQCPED
substance,measurement,setting,value
PRGFSH,relative probability (RP),MMP-2 [1]; [5],32.9171
same,relative probability (RP),MMP-9 [2]; [6],42.5506
LSPFGQ,relative probability (RP),MMP-2 [1]; [5],16.8686
same,relative probability (RP),MMP-9 [2]; [6],36.0266
GVMQ,Relative probability (RP) rank,MMP-9 [2]; [7],91467
same,relative probability (RP),MMP-9 [2]; [7],0
PAPL [P3-P1' tetramer cluster],relative probability (RP),MMP-9 [2]; [8],46.24
AAAK,relative probability (RP),MMP-9 [2]; [9],0
same,Relative probability (RP) rank,MMP-9 [2]; [10],91823
PWAQ [P3-P1' tetramer cluster],relative_probability,MMP-9 [2],41.83
PWWM [P3-P1' tetramer cluster],relative_probability,MMP-9 [2],45.99
PVGV [P3-P1' tetramer cluster],relative probability (RP),MMP-9 [2]; [8],34.33
PRLV,relative probability (RP),MMP-9 [2]; [11],7.12
PRGI [P3-P1' tetramer cluster],relative probability (RP),MMP-9 [2]; [8],47.2
PDHL,relative probability (RP),MMP-9 [2]; [11],13.06
TITG,Relative probability (RP) rank,MMP-9 [2]; [7],47886
same,relative probability (RP),MMP-9 [2]; [7],0.16
PKGE [P3-P1' tetramer cluster],relative probability (RP),MMP-9 [2]; [8],0
IRYV,relative probability (RP),MMP-9 [2]; [11],10.4
VGSL [P3-P1' tetramer cluster],relative probability (RP),MMP-9 [2]; [8],7.47
PFSV [P3-P1' tetramer cluster],relative probability (RP),MMP-9 [2]; [8],31.92
PMWM [P3-P1' tetramer cluster],relative probability (RP),MMP-9 [2]; [12],52.3808
PKAS [P3-P1' tetramer cluster],relative probability (RP),MMP-9 [2]; [8],25.84
PWWI [P3-P1' tetramer cluster],relative_probability,MMP-9 [2],43.44
PWPH,relative probability (RP),MMP-9 [2]; [11],15.08
PWMM [P3-P1' tetramer cluster],relative_probability,MMP-9 [2],46.92
ITPL [P3-P1' tetramer cluster],relative probability (RP),MMP-9 [2]; [8],0.92
PSGI [P3-P1' tetramer cluster],relative probability (RP),MMP-9 [2]; [8],45.03
PFAS,relative probability (RP),MMP-9 [2]; [11],24.05
PFPL [P3-P1' tetramer cluster],relative probability (RP),MMP-9 [2]; [8],49.54
PFAV [P3-P1' tetramer cluster],relative probability (RP),MMP-9 [2]; [8],43.58
PMPL [P3-P1' tetramer cluster],relative probability (RP),MMP-9 [2]; [12],51.2509
AAAY,relative probability (RP),MMP-9 [2]; [9],22.04
same,Relative probability (RP) rank,MMP-9 [2]; [10],2070
IYYI,relative probability (RP),MMP-9 [2]; [11],14.54
PWMI [P3-P1' tetramer cluster],relative_probability,MMP-9 [2],41.91
FFPF,relative probability (RP),MMP-9 [2]; [13],0.33
AKRF,relative probability (RP),MMP-9 [2]; [13],0.43
IIGL,Relative probability (RP) rank,MMP-9 [2]; [7],15777
same,relative probability (RP),MMP-9 [2]; [7],0.98
RQLAA-ITASG,Kobs,MMP-2 [3],4205.91 M⁻¹ s⁻¹
same,Kobs,MMP-9 [4],355.093 M⁻¹ s⁻¹
same,relative probability (RP),MMP-2 [1]; [14],28.8382
PKMSH-LTASG,Kobs,MMP-2 [3],2409.72 M⁻¹ s⁻¹
same,Kobs,MMP-9 [4],0 M⁻¹ s⁻¹
same,relative probability (RP),MMP-2 [1]; [14],24.6165
RQWRA-LTASG,Kobs,MMP-2 [3],5889.62 M⁻¹ s⁻¹
same,Kobs,MMP-9 [4],4470.66 M⁻¹ s⁻¹
same,relative probability (RP),MMP-2 [1]; [14],22.4074
GYARL-LRTAS,Kobs,MMP-2 [3],484.315 M⁻¹ s⁻¹
same,Kobs,MMP-9 [4],690.17 M⁻¹ s⁻¹
same,relative probability (RP),MMP-2 [1]; [14],1.104
PFKI,relative probability (RP),MMP-9 [2]; [11],34.84

# Reference: PMC7932537, “Quantitative profiling of protease specificity” (PLoS Computational Biology, 2021)
